Source: BigSolDB 2.1

NC(=NCCCCCCN=C(N)/N=C(\N)Nc1ccc(Cl)cc1)/N=C(\N)Nc1ccc(Cl)cc1
solubility (mole fraction)
Details	283.15 K	288.15 K	293.15 K	298.15 K	303.15 K	308.15 K	313.15 K	318.15 K	323.15 K
in 1,4-dioxane	–	0.000569	0.000674	0.000764	0.000888	0.00102	0.00117	0.00133	0.00153
in DMF	0.00795	0.00941	0.0111	0.0131	0.0153	0.018	0.0206	0.0241	0.0277
in ethanol	0.000405	0.000471	0.000539	0.000613	0.000706	0.000803	0.000914	0.00103	0.00117
in methanol	0.000656	0.000751	0.000846	0.000967	0.00108	0.00123	0.00137	0.00154	0.00173
in water	1.45e-06	2.03e-06	2.79e-06	3.84e-06	5.21e-06	7.06e-06	9.32e-06	1.23e-05	1.62e-05
